Measurements as given in paper PMC7221574 (Molecules, 2020).
Several values for one entry are separate records, joined by “and”; a condition that tells them apart may be missing. Equal entries are not always repeated. Where two headings read alike, the source gives them in different places.

Tests used:
A549 = test: In vitro antiproliferative activity, SRB assay, A549; format: cell-based, human; details: for IC50: human lung adenocarcinoma, 72 h, SRB, mean ± SD
Method: (§1) The A549 cell line was purchased from the European Collection of Authenticated Cell Cultures (ECACC, Salisbury, UK). The MCF-7, LoVo and LoVo/DX cell lines was purchased from American Type Culture Collection (ATCC, Manassas, VA, USA). All the cell lines are maintained in the Institute of Immunology and Experimental Therapy (IIET), Wroclaw, Poland.
(§2) Human lung adenocarcinoma cell line was cultured in a mixture of OptiMEM and RPMI 1640 (1:1) medium (IIET, Wroclaw, Poland), supplemented with 5% fetal bovine serum HyClone (GE Healthcare, USA) and 2 mM L-glutamine (Sigma-Aldrich, Germany). Human breast adenocarcinoma cell line was cultured in a mixture of Eagle medium (IIET, Wroclaw, Poland), supplemented with 10% fetal bovine serum, 2 mM L-glutamine, 8 μg/mL insulin and 1% amino acids (Sigma-Aldrich, Germany). Human colon adenocarcinoma cell lines were cultured in a mixture of OptiMEM and RPMI 1640 (1:1) medium (IIET, Wroclaw, Poland), supplemented with 5% fetal bovine serum HyClone (GE Healthcare, USA), 2 mM L-glutamine, 1 mM sodium pyruvate (Sigma-Aldrich, Germany) and 10 μg/100 mL doxorubicin (Accord) for LoVo/DX. Murine embryonic fibroblast cells were cultured in Dulbecco medium (Gibco), supplemented with 10% fetal bovine serum (GE Healthcare, USA) and 2 mM L-glutamine (Sigma-Aldrich, Germany). All culture media contained antibiotics: 100 U/mL penicillin (Polfa-Tarchomin, Poland) and 0.1 mg/mL streptomycin (Sigma Aldrich, Germany). All cell lines were cultured during entire experiment in humid atmosphere at 37 °C and 5% CO2.
(§3) All cell lines were exposed to each tested agent at different concentrations in the range 100–0.001 μg/mL for 72 h. The cells were also exposed to the reference drug cisplatin (Teva Pharmaceuticals, Poland) and doxorubicin (Accord Healthcare Limited, UK). Additionally, all cell lines were exposed to DMSO (solvent used for tested compounds) (POCh, Poland) at concentrations corresponding to those present in dilutions of tested agents. After 72 h sulforhodamine B assay (SRB) was performed.
(§4) After 72 h of incubation with the tested compounds, the cells were fixed in situ by gently adding of 50 μL per well of cold 50% trichloroacetic acid TCA (POCh, Poland) and were incubated at room temperature for one hour. Then the wells were washed four times with water and air dried. Next, 50 μL of 0.1% solution of sulforhodamine B (Sigma-Aldrich, Germany) in 1% acetic acid (POCh, Poland) were added to each well and were incubated at room temperature for 0.5 h. After incubation time, unbound dye was removed by washing plates four times with 1% acetic acid, whereas the stain bound to cells was solubilized with 150 μL of 10 mM Tris base (Sigma-Aldrich, Germany). Absorbance of each solution was read from a Synergy H4 Hybrid Multi-Mode Microplate Reader (BioTek Instruments, USA) at the 540 nm wavelength.

MCF-7 = test: In vitro antiproliferative activity, SRB assay, MCF-7; format: cell-based, human; details: for IC50: human breast adenocarcinoma, 72 h, SRB, mean ± SD; for selectivity index (SI) MCF-7: SI = (IC50 BALB/3T3)/(IC50 MCF-7)
Method: as §1, §2, §3, §4

LoVo = test: In vitro antiproliferative activity, SRB assay, LoVo; format: cell-based, human; details: for IC50: human colon adenocarcinoma, 72 h, SRB, mean ± SD; for selectivity index (SI) LoVo: SI = (IC50 BALB/3T3)/(IC50 LoVo)
Method: as §1, §2, §3, §4

LoVo/DX = test: cells; format: cell-based, human; details: for RI (resistance index): RI = (IC50 for LoVo/DX)/(IC50 for LoVo); for IC50: 72 h, read-out: IC50 LoVo/DX
Method: as §1, §2, §3, §4

BALB/3T3 = test: In vitro antiproliferative activity, SRB assay, normal fibroblasts BALB/3T3; format: cell-based, murine; details: normal murine embryonic fibroblasts, 72 h, SRB, mean ± SD
Method: as §1, §2, §3, §4

| SMILES | IC50 (A549) [µM] | IC50 (MCF-7) [µM] | IC50 (LoVo) [µM] | RI (resistance index) (LoVo/DX) | IC50 (LoVo/DX; doxorubicin-resistant colon adenocarcinoma subline, SRB, mean ± SD) [µM] | IC50 (BALB/3T3) [µM] | IC50 (A549; Homo sapiens, A549, 72 h) [µM] | IC50 (MCF-7; Homo sapiens, MCF7, 72 h) [µM] | selectivity index (SI) MCF-7 (MCF-7) | IC50 (LoVo; Homo sapiens, LoVo) [µM] | IC50 (LoVo/DX; Homo sapiens, LoVo/DX) [µM] | IC50 (BALB/3T3; Mus musculus, BALB/3T3) [µM] | selectivity index (SI) A549 (A549; SI = (IC50 BALB/3T3)/(IC50 A549)) | selectivity index (SI) LoVo (LoVo) |
| --- | --- | --- | --- | --- | --- | --- | --- | --- | --- | --- | --- | --- | --- | --- |
| N.N.[Cl][Pt][Cl] [Cisplatin, reference compound] | 5.74 ± 0.968 | 7.14 ± 1.22 | 7.08 ± 1.6 | 1.2 | 8.34 ± 1.12 | 5.665 ± 0.0318 | – | – | – | – | – | – | – | – |
| CNc1ccc2c(cc1=O)C(NS(N)(=O)=O)CCc1cc(OC)c(OC)c(OC)c1-2 (stereo not shown) [Compound 17] | – | – | – | 306.0 | – | – | 0.0566 ± 0.0147 | 0.0103 ± 0.0039 | ~10 and 9.8 | 0.0211 ± 0.0175 | 6.47 ± 0.264 | 0.1 ± 0.0241 | – | – |
| C=CS(=O)(=O)NC1CCc2cc(OC)c(OC)c(OC)c2-c2ccc(NC)c(=O)cc21 (stereo not shown) [Compound 19] | – | – | – | 36.7 | – | – | 0.0114 ± 0.0017 | 0.013 ± 0.0043 | – | 0.0084 ± 0.0007 | 0.307 ± 0.145 | 0.0083 ± 0.0038 | – | – |
| CCCCC(=O)NC1CCc2cc(OC)c(OC)c(OC)c2-c2ccc(NC)c(=O)cc21 (stereo not shown) [Compound 6] | – | – | – | 15.0 | – | – | 0.0136 ± 0.0014 | 0.0159 ± 0.0066 | – | 0.0068 ± 0.0039 | 0.102 ± 0.0207 | 0.0136 ± 0.0023 | – | – |
| CNc1ccc2c(cc1=O)C(NC(=O)C(C)C)CCc1cc(OC)c(OC)c(OC)c1-2 (stereo not shown) [Compound 8] | – | – | – | 24.3 | – | – | 0.0117 ± 0.0014 | 0.0188 ± 0.0099 | 1.5–4.0 | 0.007 ± 0.0014 | 0.171 ± 0.0413 | 0.0281 ± 0.0108 | 1.5–4.0 | 1.5–4.0 |
| CCCCCCCCCCCCCCCC(=O)N[C@H]1CCc2cc(OC)c(OC)c(OC)c2-c2ccc(NC)c(=O)cc21 [Compound 7] | – | – | – | 39.0 | – | – | 0.614 ± 0.194 | 0.465 ± 0.187 | – | 0.0624 ± 0.0169 | 2.44 ± 0.923 | 0.546 ± 0.104 | – | over 6 |
| CNc1ccc2c(cc1=O)C(NS(=O)(=O)CCN1CCOCC1)CCc1cc(OC)c(OC)c(OC)c1-2 (stereo not shown) [Compound 20] | – | – | – | 165.4 | – | – | 0.8 ± 0.13 | 0.15 ± 0.0253 | 6.6 | 0.268 ± 0.094 | 44.4 ± 23.9 | 0.991 ± 0.281 | – | – |
| CNc1ccc2c(cc1=O)[C@@H](NC(=O)c1cccc(F)c1)CCc1cc(OC)c(OC)c(OC)c1-2 [Compound 14] | – | – | – | 12.0 | – | – | 0.0107 ± 0.0006 | 0.0126 ± 0.0013 | – | 0.0086 ± 0.0008 | 0.103 ± 0.0249 | 0.0126 ± 0.0021 | – | – |
| CNc1ccc2c(cc1=O)[C@@H](NC(=O)c1ccccc1)CCc1cc(OC)c(OC)c(OC)c1-2 [Compound 12] | – | – | – | 11.8 | – | – | 0.013 ± 0.0013 | 0.013 ± 0.0013 | – | 0.0085 ± 0.0004 | 0.0999 ± 0.01 | 0.013 ± 0.0033 | – | – |
| CNc1ccc2c(cc1=O)[C@@H](NC(=O)C(Cl)Cl)CCc1cc(OC)c(OC)c(OC)c1-2 [Compound 10] | – | – | – | 25.8 | – | – | 0.0086 ± 0.0013 | 0.0086 ± 0.0012 | – | 0.0015 ± 0.0005 | 0.0385 ± 0.0216 | 0.0107 ± 0.0013 | – | over 6 |
| CNc1ccc2c(cc1=O)C(NS(=O)(=O)N(C)C)CCc1cc(OC)c(OC)c(OC)c1-2 (stereo not shown) [Compound 18] | 0.0106 ± 0.0006 | 0.0155 ± 0.0017 | 0.0093 ± 0.0011 | 57.8 | – | – | 0.0093 to 0.0155 | 0.0093 to 0.0155 | – | 0.0093 to 0.0155 | 0.54 ± 0.107 | 0.0142 ± 0.0132 | – | – |
